According to article PMC2481421, “Gene expression response in target organ and whole blood varies as a function of target organ injury phenotype” (Genome Biology, 2008):
Values joined by “and” are separate entries in the source; they are usually repeats but may differ in a detail not shown here. Equal values may be shown once. “Also recorded” adds a separate entry of the source.

Tests used:
liver = assay: Liver histopathology (H&E sections of left liver lobe, severity graded) after a single dose; conditions: for level of hepatocellular necrosis: medium dose, 6 hour
Protocol: The animals were acclimated for 14 days and observed for absence of disease.
Doses were determined with pilot experiments. For each chemical, doses that elicited a sub-toxic ('low'), a moderately toxic ('medium') or a overtly toxic ('high') response 24 hours after treatment were selected. […] For each compound, control animal groups were treated with vehicle alone. All animals were fasted for 12-18 hours prior to exposure. Groups of four to six animals were dosed between 8:30 and 9:30 a.m.; thereafter, feed was provided ad libitum. After 6, 24 or 48 hours of treatment, animals were anesthetized by isoflurane anesthesia. Whole blood was collected via retro-orbital plexus for hematology and gene expression analysis. Serum was collected for clinical chemistry. The animals were euthanized while under anesthesia by cervical dislocation and necropsied within 4 minutes of sacrifice. The left liver lobe was promptly removed and two defined cross sections were placed in 10% neutral buffered formalin for subsequent histopathology.
The cross sections that were fixed by immersion in 10% neutral buffered formalin (see 'In-life studies' section above) were transferred to histology grade alcohol for 18-24 hours after necropsy. Tissues were then processed, embedded in paraffin, sectioned at 5 microns, and stained with hematoxylin and eosin. A pathologist completed the initial microscopic evaluation of each liver sample for a given compound. […] An independent pathology quality assessment review was performed by a second pathologist on the initial histopathological findings.

serum = assay: Serum clinical chemistry (COBAS MIRA); assay type: in vivo, Male Fischer 344/N rats; conditions: rat, 15 mg/kg, 6 hours, animal 5
Protocol: (§1) Doses were determined with pilot experiments. […] Serum was collected for clinical chemistry.
At sacrifice, blood was collected in clotting tubes (BD Microtainer® Tubes, BD, Franklin Lakes, NJ, USA) and serum was separated. Clinical chemistry analysis was performed on all rats using a COBAS MIRA (Roche Diagnostics, Montclair, NJ, USA) using commercially available reagents from Equal Diagnostics (Exton, PA, USA) for the following assays: total protein, albumin, cholesterol, creatinine, direct bilirubin, total bilirubin, total bile acid, blood urea nitrogen and triglycerides. In addition, an enzymatic activity for the following proteins was measured: alanine aminotransferase, alkaline phosphatase, aspartate aminotransferase, lactate dehydrogenase, and sorbitol dehydrogenase. Additional data file 1 details the clinical chemistry value for each of these parameters for every animal.

whole blood = assay: Hematology of whole blood (Technicon H*1, differential and reticulocyte counts); assay type: in vivo, Male Fischer 344/N rats; conditions: rat, 15 mg/kg, 6 hours, animal 5
Protocol: as §1
Blood was collected in EDTA tubes (BD Microtainer® Tubes). The samples were assayed using the Technicon H*1 hematology analyzer (Bayer Corporation, Tarrytown, NY, USA). The instrument performs white blood cell (WBC) counts by two independent methods. The values must have agreed within 10%. Manual counts and smear estimates were used to confirm values, when necessary. To monitor red blood cell (RBC) parameters, spun microhematocrits were performed for each specimen for comparison with the automated hematocrit (which is calculated from the directly measured RBCs and the mean cell volume). Control products were assayed after every tenth specimen. For WBC differential data, smears were Wright-Giemsa stained using an Ames Hema-Tek II automated slide stainer (Bayer Corporation, Ames Division, Elkhart, IN, USA) and manual WBC differential counts were performed on the first sample in each group. For reticulocyte counts, equal amounts of whole blood and New Methylene Blue stain were allowed to incubate at room temperature for at least 15 minutes. Smears were prepared and read to determine the percent reticulocytes per 1,000 RBCs. The percent value is multiplied by the RBC count to determine the absolute number of reticulocytes per microliter. Additional data file 1 details the values for each of these parameters for every animal.

[1] = In-life observations: body weight, gross findings before and at necropsy; assay type: in vivo, Male Fischer 344/N rats; conditions: gavage, corn oil, individual animals
Protocol: as §1

[2] = categorical score, rat, 15 mg/kg, 6 hours, animal 5
[3] = severity score, rat, 15 mg/kg, 6 hours, animal 5
[4] = 150 mg/kg, 24 hours, listed as 1, 2-Dichlorobenzene
[5] = 150 mg/kg, 48 hours, listed as 1, 2-Dichlorobenzene
[6] = 1500 mg/kg, 24 hours, listed as 1, 2-Dichlorobenzene
[7] = 1500 mg/kg, 48 hours, listed as 1, 2-Dichlorobenzene

With `Clc1ccccc1Cl` [1,2-Dichlorobenzene] the Inflammation (liver; [2]) was 0, the Repair (liver; [2]) was 0 and the “Response to Hepatocellular Injury” value (liver; [2]) was 0. For the same compound, the “level of hepatocellular necrosis” value (liver; animal 2) was “did not have any observable necrosis”, the “level of hepatocellular necrosis” value (liver; animals 1, 3, and 4) was “minimal” and the “Bile Duct Hyperplasia” value (liver; [3]) was 0. For the same compound, the “Cellular Infiltration, Mixed Cell” value (liver; [3]) was 0, the “Cellular Infiltration, Mononuclear Cell” value (liver; [3]) was 0 and the “Cellular Infiltration, Neutrophil” value (liver; [3]) was 0. The “Centrilobular Cellular Infiltration, Mixed Cell” value (liver; [3]) was 0, the “Centrilobular Cellular Infiltration, Mononuclear Cell” value (liver; [3]) was 0 and the “Centrilobular Cellular Infiltration, Neutrophil” value (liver; [3]) was 0. For the same compound, the “Centrilobular Hepatocyte Degeneration” value (liver; [3]) was 0, the “Centrilobular Hepatocyte Necrosis” value (liver; [3]) was 0 and the “Centrilobular, Hepatocyte, Midzonal Degeneration” value (liver; [3]) was 0. The “Centrilobular, Hepatocyte, Midzonal Necrosis” value (liver; [3]) was 0, the Congestion (liver; [3]) was 0 and the “Depletion Glycogen” value (liver; [3]) was 0. The “Focal Hepatocyte Necrosis” value (liver; [3]) was 0, the Hemorrhage (liver; [3]) was 0 and the “Hepatocyte Apoptosis” value (liver; [3]) was 0. For the same compound, the “Hepatocyte Fatty Change” value (liver; [3]) was 0, the “Hepatocyte Hypertrophy” value (liver; [3]) was 0 and the “Hepatocyte Necrosis” value (liver; [3]) was 0. The “Hepatocyte Regeneration” value (liver; [3]) was 0, the “Midzonal Centrilobular Cellular Infiltration, Mixed Cell” value (liver; [3]) was 0 and the “Midzonal Centrilobular Cellular Infiltration, Neutrophil” value (liver; [3]) was 0. The “Midzonal Hepatocyte Necrosis” value (liver; [3]) was 0, the Mitosis (liver; [3]) was 0 and the “Portal Cellular Infiltration, Mixed Cell” value (liver; [3]) was 0. For the same compound, the “Portal Cellular Infiltration, Neutrophil” value (liver; [3]) was 0, the ALP (serum) was 269 U/L and the ALT (serum) was 54 U/L. It also gave an AST (serum) of 128 U/l, an Alb (serum) of 2.9 g/dL and a BUN (serum) of 20 mg/dL. The CK (serum) was 479 U/L, the Chol (serum) was 45 mg/dL and the Crea (serum) was 1 mg/dL. The D.Bil (serum) was 0.2, the LDH (serum) was 454 U/L and the SDH (serum) was 5 U/L. It also gave a T.Bil (serum) of 0.9, a T.Protein (serum) of 6.7 g/dL and a Trig (serum) of 195 mg/dL. The “% (Retic)” value (whole blood) was 1.9%, the “Absolute Retic” value (whole blood) was 0.1604 and the Baso-phils (whole blood) was 0.03. The Eosino-phils (whole blood) was 0.06, the Hct (whole blood) was 43.4% and the “Hgb 9g/dL0” value (whole blood) was 15 g/dL. The “LUCs (atyical)” value (whole blood) was 0.04, the Lympho-cytes (whole blood) was 2.84 and the MCH (whole blood) was 17.8 pg. The MCV (whole blood) was 51.4 fL, the Mono-cytes (whole blood) was 0.2 and the “Neuts (Segs)” value (whole blood) was 1.59. For the same compound, the Platelets (whole blood) was 601 1000/ul, the RBC (whole blood) was 8.44 mil/ul and the “Spun Hct” value (whole blood) was 45%. The WBC (whole blood) was 4.77 1000/ul, the “Clin/Ob Prior to Necropsy” value ([1]; 15 mg/kg, 6 hours) was “Normal” and the “Gross Findings” value ([1]; 15 mg/kg, 6 hours) was “No Gross Findings”. The “Clin/Ob Prior to Necropsy” value ([1]; 15 mg/kg, 24 hours) was “normal”, the “Gross Findings” value ([1]; 15 mg/kg, 24 hours) was “No Gross Findings” and the “Final Body Wt.” value ([1]; 15 mg/kg, 24 hours, listed as 1, 2-Dichlorobenzene) was 225.00 g and 229.20 g and 252.70 g and 262.00 g. The “Clin/Ob Prior to Necropsy” value ([1]; 15 mg/kg, 48 hours) was “normal”, the “Gross Findings” value ([1]; 15 mg/kg, 48 hours) was “No Gross Findings” and the “Final Body Wt.” value ([1]; 15 mg/kg, 48 hours, listed as 1, 2-Dichlorobenzene) was 238.50 g and 244.20 g and 246.80 g and 250.10 g. The “Clin/Ob Prior to Necropsy” value ([1]; 150 mg/kg, 6 hours) was “Normal”, the “Gross Findings” value ([1]; 150 mg/kg, 6 hours) was “No Gross Findings” and the “Clin/Ob Prior to Necropsy” value [1, 4] was “normal; also recorded: lethargic”. The “Final Body Wt.” value [1, 4] was 217.90 g and 205.90 g and 233.30 g and 249.00 g, the “Gross Findings” value [1, 4] was “No Gross Findings; also recorded: left & median liver lobe mottled; left dark on edges” and the “Clin/Ob Prior to Necropsy” value ([1]; 150 mg/kg, 48 hours) was “normal”. The “Final Body Wt.” value [1, 5] was 235.70 g and 244.20 g and 239.50 g and 241.90 g, the “Gross Findings” value [1, 5] was “No Gross Findings; also recorded: left liver lobe rough surface” and the “Clin/Ob Prior to Necropsy” value ([1]; 1500 mg/kg, 6 hours) was “Normal”. The “Gross Findings” value ([1]; 1500 mg/kg, 6 hours) was “No Gross Findings”, the “Clin/Ob Prior to Necropsy” value [1, 6] was “lethargic; also recorded: normal” and the “Final Body Wt.” value [1, 6] was 207.10 g and 207.70 g and 219.70 g and 225.00 g. For the same compound, the “Gross Findings” value [1, 6] was “left & median liver lobes mottled; left dark on edges; also recorded: No Gross Findings; also recorded: left & median liver lobes mottled; median dark on edges”, the “Clin/Ob Prior to Necropsy” value ([1]; 1500 mg/kg, 48 hours) was “lethargic” and the “Final Body Wt.” value [1, 7] was 208.60 g and 211.10 g. The “Gross Findings” value [1, 7] was “No Gross Findings; also recorded: left & median liver lobes rough surface”.
